Laboratory results: US20140357633A1, “COMPOUNDS FOR INHIBITING THE INTERACTION OF BCL2 WITH BINDING PARTNERS” (NOVARTIS AG, priority 2011, published 2014)
Where “and” joins values, the source holds several entries; their conditions need not be identical. Equal entries are not always repeated.

How the values were obtained:
[1] = target: BCL-2 (binding to BAK peptide) (Homo sapiens, UniProt P10415); assay: SPR (Biacore) solution inhibition assay, BCL-2 binding to immobilized BAK peptide; conditions: biotinylated BAK peptide surface, 56 nM BCL-2, 25° C.; range = high and low IC50 values from multiple experiments; read-out: BCL2_SPR IC50 BAK
Text: (§1) The present method includes utility of a Surface plasmon resonance (SPR)-based biosensor (Biacore™′ GE Healthcare, Uppsala, Sweden) to characterize BCL-2 inhibitors.
(§2) Biacore™ utilizes the phenomenon of surface plasmon resonance (SPR) to detect and measure binding interactions. In a typical Biacore experiment, one of the interacting molecules (ligand) is immobilized on a flexible dextran matrix while the interacting partner (analyte) is allowed to flow across that surface. A binding interaction results in an increase in mass on the sensor surface and a corresponding direct change in the refractive index of the medium in the vicinity of the sensor surface. Changes in refractive index or signal are recorded in resonance units (R.U.) Signal changes due to association and dissociation of complexes are monitored in a non-invasive manner, continuously and in real-time, the results of which are reported in the form of a sensorgram.
(§3) The SPR assay is configured to examine solution inhibition of BCL-2 binding to peptide derivatized sensor surfaces to generate IC50 values as a measure of inhibitor potency.
(§4) Biacore™ A100 (GE Healthcare, Uppsala, Sweden) was used to conduct all experiments reported herein. Sensor surface preparation and all interaction analyses experiments were performed at 25° C. Reagents were purchased from GE Healthcare. Running buffer containing 10 mM Hepes, pH7.4, 150 mM sodium chloride, 1.25 mM Dithiothreitol, 3% Dimethyl sulfoxide and 0.05% polysorbate 20 were utilized throughout all analyses.
(§5) Biotinylated BAK, BAD and NOXA peptides were diluted to 10 nM in running buffer and captured onto a sensor surface pre-derivatized with streptavidin (sensor chip SA) to peptide surface densities in the range 50-100 R.U. Peptide captured surfaces were blocked with 500 μM PEO2-Biotin.
(§6) Interaction analyses were performed by first equilibrating each sample within a 6 point three fold compound dilution series in the range 16 μM to […] with 56 nM BCL-2 for one hour during instrument start-up procedures. Protein compound mixtures were then injected over each peptide surface in parallel for 60 seconds at a flow-rate of 30 μL/min. 56 nM BCL-2 control samples were also prepared and run at regular intervals during the assay. Surface regeneration was performed at the end of each analysis cycle by two 30 second injections of 10 mM Glycine, pH 2.5, 1M Sodium Chloride, 0.05% polysorbate 20. Samples and control compound samples were run in duplicate and controls are also run at regular intervals during the assay to monitor surface and assay performance.
(§7) Data analyses are carried out using Biacore™ A100 evaluation software v1.1 to validate assay quality. Binding level report points were used relative to BCL-2 control samples to calculate % inhibition values for each compound protein mixture. […] The range of data shown in table 1 represents the high and low IC50 values obtained from multiple experiments.

[2] = target: BCL-2 (binding to BAD peptide) (Homo sapiens, UniProt P10415); assay: SPR (Biacore) solution inhibition assay, BCL-2 binding to immobilized BAD peptide; conditions: biotinylated BAD peptide surface, 56 nM BCL-2, 25° C.; range = high and low IC50 values from multiple experiments; read-out: BCL2_SPR IC50 BAD
Text: as §1, §2, §3, §4, §5, §6, §7

BCL-2 (binding to BAD peptide), sequence (P10415 whole entry): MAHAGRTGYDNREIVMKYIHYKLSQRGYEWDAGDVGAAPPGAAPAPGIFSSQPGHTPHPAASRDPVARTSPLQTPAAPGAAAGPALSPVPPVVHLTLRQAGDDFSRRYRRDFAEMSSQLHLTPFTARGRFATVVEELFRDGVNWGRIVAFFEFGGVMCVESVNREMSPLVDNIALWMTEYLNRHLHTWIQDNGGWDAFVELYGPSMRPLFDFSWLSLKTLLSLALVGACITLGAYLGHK
BCL-2 (binding to BAK peptide), sequence (P10415 whole entry): as above

Row | IC50 [1] | IC50 [2] | SMILES
1 | 191 to 287 nM | 198 to 260 nM | CCCCN(CCCC)C(=O)c1cc(C)n(-c2ccc(NC(=O)CCc3ccccc3)cc2C(=O)N2Cc3ccccc3C[C@H]2CO)n1 [Example 8]
2 | 409 to 430 nM | 574 to 596 nM | CCCCN(CCCC)C(=O)c1cc(C)n(-c2ccc(NC(=O)Cc3c(F)cccc3Cl)cc2C(=O)N2Cc3ccccc3C[C@H]2CO)n1 [Example 159]
3 | 57.2 to 59.9 nM and 58.3 to 62 nM and 52.4 to 53.4 nM | 61.9 to 73.1 nM and 64.1 to 72.9 nM and 51 to 54.5 nM | CCCCN(CCCC)C(=O)c1cc(C)n(-c2ccc(NC(=O)C(C)c3ccc4ccccc4c3)cc2C(=O)N2Cc3ccccc3C[C@H]2CO)n1 (some centres unmarked) [Example 114]
4 | 44.2 to 47.7 nM | 53.4 to 59 nM | CCCCN(CCCC)C(=O)c1cc(C)n(-c2ccc(NC(=O)C(CC(=O)O)Cc3ccccc3)cc2C(=O)N2Cc3ccccc3C[C@H]2CO)n1 (some centres unmarked) [Example 15]
5 | 629 to 841 nM and 429 to 430 nM | 1020 to 1120 nM and 691 to 730 nM | CCCCN(CCCC)C(=O)c1cc(C)n(-c2ccc(NC(=O)c3oc(C)nc3C)cc2C(=O)N2Cc3ccccc3C[C@H]2CO)n1 [Example 108]
6 | 215 to 235 nM | 254 to 260 nM | CCCCN(CCCC)C(=O)c1cc(C)n(-c2ccc(NC(=O)CCc3c[nH]c4c(Cl)cccc34)cc2C(=O)N2Cc3ccccc3C[C@H]2CO)n1 [Example 124]
7 | 69.4 to 74.9 nM | 83 to 92.7 nM | CCCCN(CCCC)C(=O)c1cc(C)n(-c2ccc(NC(=O)Cc3ccc(Cl)cc3)cc2C(=O)N2Cc3ccccc3C[C@H]2CO)n1 [Example 137]
8 | 739 to 881 nM | 918 to 958 nM | CCCCN(CCCC)C(=O)c1cc(C)n(-c2ccc(NC(=O)c3cc(-c4cccc(O)c4)[nH]n3)cc2C(=O)N2Cc3ccccc3C[C@H]2CO)n1 [Example 134]
9 | 63.4 to 72.2 nM | 67.6 to 67.8 nM | CCCCN(CCCC)C(=O)c1cc(C)n(-c2ccc(NC(=O)C(Cc3ccccc3)C(=O)O)cc2C(=O)N2Cc3ccccc3C[C@H]2CO)n1 (some centres unmarked) [Example 25]
10 | 63.1 to 66.9 nM | 77.3 to 79.6 nM | CCCCN(CCCC)C(=O)c1cc(C)n(-c2ccc(NC(=O)Cc3ccccc3F)cc2C(=O)N2Cc3ccccc3C[C@H]2CO)n1 [Example 57]
11 | 298 to 315 nM | 306 to 381 nM | CCCCN(CCCC)C(=O)c1cc(C)n(-c2ccc(NC(=O)c3ccc4c(c3)nnn4C(C)C)cc2C(=O)N2Cc3ccccc3C[C@H]2CO)n1 [Example 147]
12 | 100 to 103 nM | 122 to 125 nM | CCCCN(CCCC)C(=O)c1cc(C)n(-c2ccc(NC(=O)c3ccccc3Oc3ccccc3)cc2C(=O)N2Cc3ccccc3C[C@H]2CO)n1 [Example 68]
13 | 181 to 191 nM | 162 to 183 nM | CCCCN(CCCC)C(=O)c1cc(C)n(-c2ccc(NC(=O)C(C)c3ccccc3)cc2C(=O)N2Cc3ccccc3C[C@H]2CO)n1 (some centres unmarked) [Example 29]
14 | 107 to 108 nM | 148 to 155 nM | CCCCN(CCCC)C(=O)c1cc(C)n(-c2ccc(NC(=O)Cc3ccc(OC)c(C)c3)cc2C(=O)N2Cc3ccccc3C[C@H]2CO)n1 [Example 95]
15 | 481 to 495 nM | – | CCCCN(CCCC)C(=O)c1cc(C)n(-c2ccc(NC(=O)C(C)C)cc2C(=O)N2Cc3ccccc3C[C@H]2CO)n1 [Example 163]
16 | 94 to 98.2 nM | 111 to 112 nM | CCCCN(CCCC)C(=O)c1cc(C)n(-c2ccc(NC(=O)CN3CC(c4ccccc4)CC3=O)cc2C(=O)N2Cc3ccccc3C[C@H]2CO)n1 (some centres unmarked) [Example 119]
17 | 30.7 to 31.1 nM | 25.7 to 31.7 nM | CCCCN(CCCC)C(=O)c1cc(C)n(-c2ccc(NC(=O)c3nn(-c4ccccc4)c(=O)cc3O)cc2C(=O)N2Cc3ccccc3C[C@H]2CO)n1 [Example 94]
18 | 83.8 to 109 nM | 78.7 to 97.4 nM | CCCCN(CCCC)C(=O)c1cc(C)n(-c2ccc(NC(=O)COc3ccccc3)cc2C(=O)N2Cc3ccccc3C[C@H]2CO)n1 [Example 4]
19 | 553 to 566 nM | 763 to 799 nM | CCCCN(CCCC)C(=O)c1cc(C)n(-c2ccc(NC(=O)CC3NC(=O)NC3=O)cc2C(=O)N2Cc3ccccc3C[C@H]2CO)n1 (some centres unmarked) [Example 111]
20 | 290 to 393 nM | 388 to 405 nM | CCCCN(CCCC)C(=O)c1cc(C)n(-c2ccc(NC(=O)c3cnc(N4CCCC4)nc3)cc2C(=O)N2Cc3ccccc3C[C@H]2CO)n1 [Example 88]

Row | IC50 [1] | IC50 [2] | SMILES
21 | 395 to 410 nM | 531 to 537 nM | CCCCN(CCCC)C(=O)c1cc(C)n(-c2ccc(NC(=O)c3cc(=O)c4cc(C)ccc4o3)cc2C(=O)N2Cc3ccccc3C[C@H]2CO)n1 [Example 59]
22 | 426 to 594 nM | 455 to 539 nM | CCCCN(CCCC)C(=O)c1cc(C)n(-c2ccc(NC(=O)c3ccc(NS(=O)(=O)Cc4ccccc4)cc3)cc2C(=O)N2Cc3ccccc3C[C@H]2CO)n1 [Example 143]
23 | 111 to 144 nM | 130 to 171 nM | CCCCN(CCCC)C(=O)c1cc(C)n(-c2ccc(NC(=O)C(CC(=O)N(C)C)c3ccccc3)cc2C(=O)N2Cc3ccccc3C[C@H]2CO)n1 (some centres unmarked) [Example 99]
24 | 106 to 108 nM | 131 to 138 nM | CCCCN(CCCC)C(=O)c1cc(C)n(-c2ccc(NC(=O)COc3cc(Cl)c(Cl)cc3Cl)cc2C(=O)N2Cc3ccccc3C[C@H]2CO)n1 [Example 127]
25 | 1250 to 1270 nM and 964 to 1220 nM | 1670 nM and 1170 to 1220 nM | CCCCN(CCCC)C(=O)c1cc(C)n(-c2ccc(NC(=O)c3cc(F)ccc3C(F)(F)F)cc2C(=O)N2Cc3ccccc3C[C@H]2CO)n1 [Example 145]
26 | 44.4 to 52.4 nM | 48.9 to 58 nM | CCCCN(CCCC)C(=O)c1cc(C)n(-c2ccc(NC(=O)Cc3cccc4ccccc34)cc2C(=O)N2Cc3ccccc3C[C@H]2CO)n1 [Example 3, (S)—N,N-dibutyl-1-(2-(3-(hydroxymethyl)-1,2,3,4-tetrahydroisoquinoline-2-carbonyl)-4-(2-(naphthalen-1-yl)acetamido)phenyl)-5-methyl-1H-pyrazole-3-carboxamide]
27 | 1030 to 1070 nM | 908 to 1110 nM | CCCCN(CCCC)C(=O)c1cc(C)n(-c2ccc(NC(=O)c3oc4ccccc4c3C)cc2C(=O)N2Cc3ccccc3C[C@H]2CO)n1 [Example 80]
28 | 48.5 to 49.6 nM | 56.8 to 58.8 nM | CCCCN(CCCC)C(=O)c1cc(C)n(-c2ccc(NC(=O)C(OC)c3ccccc3)cc2C(=O)N2Cc3ccccc3C[C@H]2CO)n1 (some centres unmarked) [Example 72]
29 | 1770 to 1830 nM | 1850 to 1900 nM | CCCCN(CCCC)C(=O)c1cc(C)n(-c2ccc(NC(=O)c3ccc(OC(F)(F)F)cc3)cc2C(=O)N2Cc3ccccc3C[C@H]2CO)n1 [Example 93]
30 | 55 to 61.3 nM | 51.1 to 59.1 nM | CCCCN(CCCC)C(=O)c1cc(C)n(-c2ccc(NC(=O)CC(C(=O)O)c3ccccc3)cc2C(=O)N2Cc3ccccc3C[C@H]2CO)n1 (some centres unmarked) [Example 42]
31 | 722 to 725 nM | 1090 nM | CCCCN(CCCC)C(=O)c1cc(C)n(-c2ccc(NC(=O)CCNC(C)=O)cc2C(=O)N2Cc3ccccc3C[C@H]2CO)n1 [Example 56]
32 | 731 to 786 nM | 839 to 856 nM | CCCCN(CCCC)C(=O)c1cc(C)n(-c2ccc(NC(=O)c3cccn(Cc4ccccc4)c3=O)cc2C(=O)N2Cc3ccccc3C[C@H]2CO)n1 [Example 116]
33 | 497 to 520 nM | 693 to 748 nM | CCCCN(CCCC)C(=O)c1cc(C)n(-c2ccc(NC(=O)c3cnn4cccnc34)cc2C(=O)N2Cc3ccccc3C[C@H]2CO)n1 [Example 107]
34 | 581 to 600 nM | 846 to 870 nM | CCCCC(CCCC)C(=O)c1cc(C)n(-c2ccc(NC(=O)COc3ccc(N4CCCC4=O)cc3)cc2C(=O)N2Cc3ccccc3C[C@H]2CO)n1 [Example 48]
35 | 692 to 840 nM | 628 to 760 nM | CCCCN(CCCC)C(=O)c1cc(C)n(-c2ccc(NC(=O)c3oc(-c4ccccc4)nc3C)cc2C(=O)N2Cc3ccccc3C[C@H]2CO)n1 [Example 46]
36 | 142 to 161 nM | 198 nM | CCCCN(CCCC)C(=O)c1cc(C)n(-c2ccc(NC(=O)COc3ccc(Cl)cc3)cc2C(=O)N2Cc3ccccc3C[C@H]2CO)n1 [Example 7]
37 | 554 to 643 nM | 702 to 723 nM | CCCCN(CCCC)C(=O)c1cc(C)n(-c2ccc(NC(=O)C3CC(=O)N(Cc4ccc(F)cc4)C3)cc2C(=O)N2Cc3ccccc3C[C@H]2CO)n1 (some centres unmarked) [Example 50]
38 | 192 to 194 nM | 276 to 287 nM | CCCCN(CCCC)C(=O)c1cc(C)n(-c2ccc(NC(=O)Cc3ccccc3Cl)cc2C(=O)N2Cc3ccccc3C[C@H]2CO)n1 [Example 139]
39 | – | 1330 to 1470 nM | CCCCN(CCCC)C(=O)c1cc(C)n(-c2ccc(NC(=O)c3ccc(Cl)cc3I)cc2C(=O)N2Cc3ccccc3C[C@H]2CO)n1 [Example 82]
40 | 111 to 144 nM | – | CCCCN(CCCC)C(=O)c1cc(C)n(-c2ccc(NC(=O)C(CC(=O)N(C)C)c3ccccc3)cc2C(=O)N2Cc3ccccc3C[C@H]2CO)n1 (some centres unmarked) [Example 36]
